In one test the test system is pS6 RP (S235/236). The test is described as follows: Western blot of pS6 RP (distal readout of PI3Kα activity) in MCF7 parental and CR2.5 cells. It is filed as cell-based, human. To be noted: overnight incubation (FIG. 3). As for the experimental part: (§1) Control MCF7 (parental) and MAP3K1-deficient (CR2.5) cell lines cultured in full growth media and treated with either Compound A, Compound B and GDC-0068 as described previously. Following overnight incubation, cell lysates are prepared and analysed by Western blotting using antibodies specific for phosphorylated proteins in the PI3K pathway (FIG. 3).

The subject of another test is pPRAS40. The test can be described thus: Western blot of pPRAS40 (readout of AKT activity) in MCF7 parental and CR2.5 cells. Type of test: cell-based, human. The conditions noted are these: MAP3K1-deficient MCF7 CR2.5 cell line, overnight incubation (FIG. 3). Here is the method: as §1
In general terms: A western blot detects proteins with antibodies after separation by electrophoresis.

The subject of a further test is pAKT (T308). The test can be described thus: Immunoblot of phosphorylated AKT (T308) in PIK3CA mutant breast cancer cell lines. Type of test: cell-based, human. Here is the method:
Protocol for Measuring Phosphorylated AKT (T308) in MCF7, T47D Cells.
Low-passage MCF7 and T47D cells were obtained from AZ Cell Bank Collection and cultured as described previously (Avivar-Valderas et al., MCB, 31(17):3616-29, 2011). Wild-type and MCF10A-PI3Kα^H1047R were provided by Horizon Discovery.
After culture, cells were lysed, and protein was analyzed by immunoblotting (IB) (Avivar-Valderas et al., MCB, 31(17):3616-29, 2011). Membranes were blotted using antibodies against MAP3K1 (Santa Cruz) phospho AKT (Thr308) (Cell Signaling Technology) and Vinculin (Sigma). Bound antibodies were detected with horseradish peroxidase (HRP)-conjugated secondary antibodies and chemiluminescence assays (Avivar-Valderas et al., MCB, 31(17):3616-29, 2011).
The effect of MAP3K1 loss of expression on the pharmacological activity of Compound A using the cell-lines generated via siRNA transfection was examined by monitoring the level of inhibition of signalling readouts downstream of PI3Kalpha. A major readout of the pathway is the phosphorylation of AKT at Threonine 308. This phosphorylation is carried out by PDK1, itself activated by PI3K-generated PIP3 (phosphatidyl inositol 3,4,5-trisphosphate). Further pathway readouts are phosphorylation of PRAS40 (Proline-Rich AKT1 Substrate) at Thr246. […]

Test [1] concerns MAP3K1-deficient MCF10A-H1047R acini. The test is described as follows: 3D-Matrigel culture, cleaved caspase 3 (apoptosis), MAP3K1-deficient MCF10A-H1047R acini. Type of test: cell-based. The conditions noted are these: 15 days (FIG. 7A right). As for the experimental part:
(§2) For 3D cultures, cells were plated in commercially available growth factor-reduced Matrigel (Mgel) (BD Biosciences, San Diego, Calif.) and grown (Avivar-Valderas et al., MCB, 31(17):3616-29, 2011). Prior to fixation for IF analysis, acini were treated with 500 nM Compound B every 3 days until the endpoint (day 15). 3D-Matrigel MCF10A acinar structures were fixed at day 15 and processed for size measurement and IF microscopy analysis (Avivar-Valderas et al., MCB, 31(17):3616-29, 2011)
(§3) This might be explained by an increase of cell proliferation or/and reduction of cell death (anoikis in ECM-deprived cells). To test the latter, staining with caspase 3 (anoikis readout) and confocal equatorial sections to analyse lumen formation (main compartment in which anoikis takes place) were carried out.

Test [2] deals with MCF10A-H1047R CR2.3 cells. The test can be described thus: IncuCyte proliferation assay, MAP3K1 mutant clone H1047R-CR2.3. It is filed as cell-based. Here is the method:
(§4) MCF7 and MCF10A cells were plated in 96 well plates at a density of 2000 cells per well in RPMI media containing 10% FBS or DMEM/F12 media containing 5% of HS (horse serum) respectively. After incubation at 37° C. for 16 hours, concentrations of Compound A, Compound B (30 μM to 117 nM) or AZD2014 (15 μM to 66 nM) were added to the assay plates. Plates were then placed in the IncuCyte and scheduled to be scanned every 6 h for 3 days. Relative percentage of confluence data was normalized to control DMSO treated cells and fitted to a nonlinear regression curve using PRISM (Graphpad).

The test system of the next test is MCF7-CR1.4 cells. The test is described as follows: IncuCyte proliferation assay, MAP3K1 mutant clone MCF7-CR1.4. It is filed as cell-based, human.
The next test relates to MCF7 parental cells. The test is described as follows: IncuCyte proliferation assay, MCF7 parental cells. The conditions noted are these: 500 nM; parental MCF7 cells (FIG. 4C-D, FIG. 6B). Type of test: cell-based, human. As for the experimental part: as §4
In test [3] the test system is MCF10A-H1047R control acini. The test is described as follows: 3D-Matrigel culture, cleaved caspase 3 (apoptosis), MCF10A-H1047R control acini. It is filed as cell-based. To be noted: 15 days (FIG. 7A right). As for the experimental part: as §2, §3
Test [4] relates to MCF10A-H1047R parental cells. The test is described as follows: IncuCyte proliferation assay, MCF10A-H1047R parental cells. Type of test: cell-based. The conditions noted are these: 500 nM; MCF10A-H1047R parental cells (FIG. 4, FIG. 6). As for the experimental part: as §4
Another test relates to pS6 RP. The test can be described thus: pS6 RP staining of 3D-Matrigel acini, MCF7 parental and MCF7 CR2.5. Type of test: cell-based, human. The conditions noted are these: 2 μM per FIG. 7B legend. As for the experimental part: For 3D cultures, cells were plated in commercially available growth factor-reduced Matrigel (Mgel) (BD Biosciences, San Diego, Calif.) and grown (Avivar-Valderas et al., MCB, 31(17):3616-29, 2011). […] 3D-Matrigel MCF10A acinar structures were fixed at day 15 and processed for size measurement and IF microscopy analysis (Avivar-Valderas et al., MCB, 31(17):3616-29, 2011)
ECM-attached cells (located in the outer rim) were positive for pS6 RP in parental acini. As predicted, the number of pS6 RP positive cells was greater in MCF7-CR2.5 (FIG. 7B, grey bars).

The next test concerns MCF7 parental acini. The test can be described thus: 3D-Matrigel culture, acinus volume, MCF7 parental. To be noted: 500 nM every 3 days until day 15; control cultures (MCF7 parental) (FIG. 7A left). Type of test: cell-based, human.
A further test deals with MCF7 CR2.5 acini. The test is described as follows: 3D-Matrigel culture, acinus volume, MAP3K1-deficient MCF7 CR2.5. Type of test: cell-based, human. To be noted: 500 nM every 3 days until day 15; MAP3K1-deficient acini (FIG. 7A left).
Where [5] appears, read: MAP3K1-deficient MCF7 cells (CR2.5).

Data on three molecules can be found in US11685953B2, “Biomarkers and methods of treating cancer” (ASTRAZENECA AB, priority 2015, dated 2023).

Structures are written as SMILES.

In the case of `CC(C)NC[C@@H](C(=O)N1CCN(c2ncnc3c2[C@H](C)C[C@H]3O)CC1)c1ccc(Cl)cc1` [GDC-0068, ipatasertib, reference compound], the “inhibition of pS6 RP activity” value in the test on pS6 RP (S235/236) (setting [5]) is on record as “resistant to all treatments”; in the test on pS6 RP (S235/236) (parental MCF7 cells), “efficiently inhibit”. For the same molecule, the “inhibition of pPRAS40” value with pPRAS40 was “resistant”.

For the molecule `CCn1nc(C2CCN(C(=O)CCO)CC2)nc1-c1cnc(N)c(-c2nnc(C(C)(C)C)o2)n1` [Compound A, 1-(4-(5-(5-amino-6-(5-tert-butyl-1,3,4-oxadiazol-2-yl)pyrazin-2-yl)-1-ethyl-1H-1,2,4-triazol-3-yl)piperidin-1-yl)-3-hydroxypropan-1-one], the “inhibition of pS6 RP activity” value with pS6 RP (S235/236) (setting [5]) is on record as “resistant to all treatments”; in the test on pS6 RP (S235/236) (parental MCF7 cells), “efficiently inhibit”. Also, the “inhibition of pPRAS40” value with pPRAS40 is given as “resistant”. The “phosphorylation of AKT on Thr308” value in the test on pAKT (T308) (250 nM for 24 hours, control cells transfected with control siRNA duplex inactive on MAP3K1 mRNA (MCF7, T47D; FIG. 2A)) was “profound reduction”. For the same molecule, the “inhibition of PI3K signalling, effect on pAKT on Thr308 by Western blotting” value with pAKT (T308) (MAP3K1-deficient MCF7 clones CR1.4 and CR2.5 compared to parental MCF7 (FIG. 2B)) was “less pronounced”.

Regarding `NC1(C(=O)N[C@@H](CCO)c2ccc(Cl)cc2)CCN(c2ncnc3[nH]ccc23)CC1` [Compound B, 4-amino-N-[(1S)-1-(4-chlorophenyl)-3-hydroxy-propyl]-1-(7H-pyrrolo[2,3-d]pyrimidin-4-yl)piperidine-4-carboxamide], the “increase in number of positive cleaved caspase 3 events” value in test [1] is reported as “not significant”. In addition, the effect on proliferation result in test [2] (500 nM, MAP3K1-mutant line derived from MCF10A-H1047R (FIG. 4, FIG. 6)) was “no effect”; with MCF7-CR1.4 cells (500 nM, MCF7-CR1.4 (FIG. 4C-D, FIG. 6B)), “no effect”; in [4] it was “able to inhibit the proliferation”. Besides, the “increase of IC50 for proliferation relative to parental cells” value in test [2] (clone H1047R-CR2.3 relative to MCF10A-H1047R parental cells (FIG. 5)) turned out to be 10 fold; with MCF7-CR1.4 cells (MCF7-CR1.4 relative to parental MCF7 cells (FIG. 5)) it was 3 fold. The “inhibition of pS6 RP activity” value in the test with pS6 RP (S235/236) (setting [5]) is “resistant to all treatments”; in the test with pS6 RP (S235/236) (parental MCF7 cells) it was “efficiently inhibit”. Further, the “effect on proliferation (growth)” value in the test on MCF7 parental cells is “able to reduce growth”. Besides, in test [3], the “number of positive cleaved caspase 3 events” value was “significant increase”. Moreover, in the test on pS6 RP (MCF7 CR2.5 acini), the “number of positive pS6 RP cells, reduction by treatment” value was “reverted”. In addition, the “number of positive pS6 RP cells” value with pS6 RP (parental MCF7 acini) is reported as “strongly reduced”. The “inhibition of pPRAS40” value in the test on pPRAS40 is “resistant”. For the same molecule, the acini volume entry in the test with MCF7 parental acini is given as “significantly reduced”. Further, in the test on MCF7 CR2.5 acini, the “acini volume, reduction by treatment” value is “partially reverted”.
